Patent publication US20160229839A1, “Factor XIa Inhibitors” (Merck Sharp & Dohme Corp., priority 2013, published 2016)

Molecular target: T1, purified human Factor XIa (Homo sapiens, UniProt P03951)
T1 construct: purified human Factor XIa; purchased Sekisui Diagnostics
Test: Factor XIa Assay (fluorogenic substrate Z-Gly-Pro-Arg-AFC)
Format: biochemical
Conditions: purified human Factor XIa 40 pM; Z-Gly-Pro-Arg-AFC 100 μM; 50 mM HEPES pH 7.4; read-out: hFXIa Ki (nM), Factor XIa inhibition
Procedure: The effectiveness of compound of the present invention as inhibitors of Coagulation Factor XIa can be determined using a relevant purified serine protease, and an appropriate synthetic substrate. The rate of hydrolysis of the chromogenic or fluorogenic substrate by the relevant serine protease was measured both in the absence and presence of compounds of the present invention. Assays were conducted at room temperature or at 37° C. […] A decrease in the rate of fluorescence change in the presence of inhibitor is indicative of enzyme inhibition. Such methods are known to one skilled in the art. The results of this assay are expressed as the inhibitory constant, Ki.
Factor XIa determinations were made in 50 mM HEPES buffer at pH 7.4 containing 150 mM NaCl, 5 mM CaCl2, and 0.1% PEG 8000 (polyethylene glycol; J T Baker or Fisher Scientific). Determinations were made using purified human Factor XIa at a final concentration of 40 pM (Sekisui Diagnostics) and he synthetic substrate, Z-Gly-Pro-Arg-AFC, TFA salt (Sigma #C0980) at a concentration of 100 μM.
Activity assays were performed by diluting a stock solution of substrate at least tenfold to a final concentration ≦0.1 Km into a solution containing enzyme or enzyme equilibrated with inhibitor. Times required to achieve equilibration between enzyme and inhibitor were determined in control experiments. Initial velocities of product formation in the absence (Vo) or presence of inhibitor (Vi) were measured. Assuming competitive inhibition, and that unity is negligible compared Km/[S], [I]/e, and [I]/e (where [S], [I], and e respectively represent the total concentrations, of substrate, inhibitor and enzyme), the equilibrium constant (Ki) for dissociation of the inhibitor from the enzyme can be obtained from the dependence of Vo/Vi on [I] shown in the following equation.

T1 sequence (P03951 388-625 limits assumed): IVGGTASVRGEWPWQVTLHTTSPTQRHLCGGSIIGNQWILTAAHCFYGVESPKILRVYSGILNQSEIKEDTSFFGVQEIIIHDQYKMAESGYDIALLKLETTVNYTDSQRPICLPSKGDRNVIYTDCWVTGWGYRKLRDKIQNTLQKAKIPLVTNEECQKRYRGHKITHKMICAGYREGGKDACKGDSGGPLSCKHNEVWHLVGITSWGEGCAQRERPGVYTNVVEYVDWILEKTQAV
T1 sequence (P03951 19-387 partner limits assumed): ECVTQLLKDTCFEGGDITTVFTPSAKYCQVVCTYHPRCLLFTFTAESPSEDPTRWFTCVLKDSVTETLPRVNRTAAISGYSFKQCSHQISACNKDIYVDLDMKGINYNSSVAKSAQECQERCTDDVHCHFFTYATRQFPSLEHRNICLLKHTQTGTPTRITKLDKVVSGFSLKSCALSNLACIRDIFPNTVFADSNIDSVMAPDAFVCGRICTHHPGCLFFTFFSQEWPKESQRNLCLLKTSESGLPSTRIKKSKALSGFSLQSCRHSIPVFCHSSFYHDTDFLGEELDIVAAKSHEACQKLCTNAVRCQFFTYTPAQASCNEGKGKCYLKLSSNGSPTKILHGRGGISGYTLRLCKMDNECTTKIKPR

SMILES | Ki
CC(C)(C)OC(=O)c1ccc(NC(=O)C2C(c3ccccc3)CCCN2C(=O)/C=C/c2cc(Cl)ccc2-n2cnnn2)cc1 (racemic) [Example 1-1, (E)-tert-butyl 4-(1-(3-(5-chloro-2-(1H-tetrazol-1-yl)phenyl)acryloyl)-3-phenylpiperidine-2-carboxamido)benzoate] | > 10000 nM
O=C(O)c1ccc(NC(=O)[C@@H]2[C@H](c3ccccc3)CCCN2C(=O)/C=C/c2cc(Cl)ccc2-n2cnnn2)cc1 (racemic) [Example 1-2, (E)-1-(2-(3-(2-((4-carboxyphenyl)carbamoyl)-3-phenylpiperidin-1-yl)-3-oxoprop-1-en-1-yl)-4-chlorophenyl)-1H-tetrazol-2-ium 2,2,2-trifluoroacetate] | 80.9 nM
NC1CCc2cc(C(=O)N3CCCC(c4ccccc4)C3C(=O)Nc3ccc(C(=O)O)cc3)ccc21 (racemic) [Example 1-14, 4-(1-(1-amino-2,3-dihydro-1H-indene-5-carbonyl)-3-phenylpiperidine-2-carboxamido)benzoic acid] | 572 nM
CC(C)(C)OC(=O)c1ccc(NC(=O)C2C(C3CCCCC3)CCCN2C(=O)/C=C/c2cc(Cl)ccc2-n2cnnn2)cc1 (stereo not shown) [Example 1-3, (E)-tert-butyl 4-(1-(3-(5-chloro-2-(1H-tetrazol-1-yl)phenyl)acryloyl)-3-cyclohexylpiperidine-2-carboxamido)benzoate] | > 10000 nM
CC(C)(C)OC(=O)C1CCC(NC(=O)C2C(C3CCCCC3)CCCN2C(=O)/C=C/c2cc(Cl)ccc2-n2cnnn2)CC1 (stereo not shown) [Example 1-4, (E)-tert-butyl 4-(1-(3-(5-chloro-2-(1H-tetrazol-1-yl)phenyl)acryloyl)-3-cyclohexylpiperidine-2-carboxamido)cyclohexanecarboxylate] | > 10000 nM
O=C(O)c1ccc(NC(=O)C2C(C3CCCCC3)CCCN2C(=O)/C=C/c2cc(Cl)ccc2-n2cnnn2)cc1 (stereo not shown) [Example 1-5, (E)-1-(2-(3-(2-((4-carboxyphenyl)carbamoyl)-3-cyclohexylpiperidin-1-yl)-3-oxoprop-1-en-1-yl)-4-chlorophenyl)-1H-tetrazol-2-ium 2,2,2-trifluoroacetate] | 44 nM
O=C(O)C1CCC(NC(=O)C2C(C3CCCCC3)CCCN2C(=O)/C=C/c2cc(Cl)ccc2-n2cnnn2)CC1 (stereo not shown) [Example 1-6, 2,2,2-trifluoroacetate] | 5250 nM
O=C(/C=C/c1cc(Cl)ccc1-n1cnnn1)N1CCCC(c2ccccc2)C1c1nc(-c2cccnc2)c[nH]1 (stereo not shown) [Example 1-7, (E)-3-(5-chloro-2-(1H-tetrazol-1-yl)phenyl)-1-(3-phenyl-2-(4-(pyridin-3-yl)-1H-imidazol-2-yl)piperidin-1-yl)prop-2-en-1-one] | 905 nM
N=C(N)N1CCC(C(=O)N2CCCC(c3ccccc3)C2C(=O)Nc2ccc(C(=O)O)cc2)CC1 (stereo not shown) [Example 1-8, 4-(1-(1-carbamimidoylpiperidine-4-carbonyl)-3-phenylpiperidine-2-carboxamido)benzoic acid] | 15.4 nM
O=C(O)c1ccc(NC(=O)C2C(c3ccccc3)CCCN2C(=O)CCc2cc(Cl)ccc2-n2cnnn2)cc1 (stereo not shown) [Example 1-9, 4-(1-(3-(5-chloro-2-(1H-tetrazol-1-yl)phenyl)propanoyl)-3-phenylpiperidine-2-carboxamido)benzoic acid] | 57.1 nM
O=C(O)c1ccc(NC(=O)C2C(c3cccc(F)c3)CCCN2C(=O)/C=C/c2cc(Cl)ccc2-n2cnnn2)cc1 (stereo not shown) [Example 1-10, (E)-4-(1-(3-(5-chloro-2-(H-tetrazol-1-yl)phenyl)acryloyl)-3-(3-fluorophenyl)piperidine-2-carboxamido)benzoic acid] | 18.1 nM
O=C(/C=C/c1cc(Cl)ccc1-n1cnnn1)N1CCCC(c2ccccc2)C1c1nc(-c2cccnc2)c[nH]1 [Example 1-11, (E)-3-(5-chloro-2-(1H-tetrazol-1-yl)phenyl)-1-(3-phenyl-2-(4-(pyridin-3-yl)-1H-imidazol-2-yl)piperidin-1-yl)prop-2-en-1-one (2R,3R)] | 8650 nM
O=C(/C=C/c1cc(Cl)ccc1-n1cnnn1)N1CCCC(c2ccccc2)C1c1nc(-c2cccnc2)c[nH]1 [Example 1-12, (E)-3-(5-chloro-2-(1H-tetrazol-1-yl)phenyl)-1-(3-phenyl-2-(4-(pyridin-3-yl)-1H-imidazol-2-yl)piperidin-1-yl)prop-2-en-1-one (2S,3S)] | 570 nM
O=C(/C=C/c1cc(Cl)ccc1-n1cnnn1)N1CCCC(c2ccccc2)C1c1nc(-c2ccc(F)cc2)c[nH]1 (stereo not shown) [Example 1-13, (E)-3-(5-chloro-2-(1H-tetrazol-1-yl)phenyl)-1-(2-(4-(4-fluorophenyl)-1H-imidazol-2-yl)-3-phenylpiperidin-1-yl)prop-2-en-1-one] | > 10000 nM
CC(C)(N)c1ccc(C(=O)N2CCCC(c3ccccc3)C2C(=O)Nc2ccc(C(=O)O)cc2)cc1 (stereo not shown) [Example 1-15, 4-(1-(4-(2-aminopropan-2-yl)benzoyl)-3-phenylpiperidine-2-carboxamido)benzoic acid] | > 10000 nM

Second part, the compound after the results:

Ki | SMILES
> 10000 nM | COC(=O)c1cccc(-c2c[nH]c(C3C(c4ccccc4)CCCN3C(=O)/C=C/c3cc(Cl)ccc3-n3cnnn3)n2)c1 (racemic) [Example 1-54, (E)-methyl 3-(2-(1-(3-(5-chloro-2-(1H-tetrazol-1-yl)phenyl)acryloyl)-3-phenylpiperidin-2-yl)-1H-imidazol-4-yl)benzoate]
7.6 nM | O=C(O)c1ccc(NC(=O)[C@@H]2[C@H](c3ccccc3)CCCN2C(=O)/C=C/c2cc(Cl)ccc2-n2cnnn2)cc1 (single isomer, unassigned) [Example 1-57]
19.3 nM | O=C(O)c1cccc(-c2c[nH]c([C@@H]3[C@H](c4ccccc4)CCCN3C(=O)/C=C/c3cc(Cl)ccc3-n3cnnn3)n2)c1 (single isomer, unassigned) [Example 1-69]
5730 nM | O=C(O)c1cccc(-c2c[nH]c([C@H]3[C@@H](c4ccccc4)CCCN3C(=O)/C=C/c3cc(Cl)ccc3-n3cnnn3)n2)c1 (single isomer, unassigned) [Example 1-70]
619 nM | N[C@H]1CCc2cc(C(=O)N3CCCC(c4ccccc4)C3C(=O)Nc3ccc(C(=O)O)cc3)ccc21 (stereo partly drawn) [Example 1-16, 4-(1-((S)-1-amino-2,3-dihydro-1H-indene-5-carbonyl)-3-phenylpiperidine-2-carboxamido)benzoic acid]
2850 nM | O=C(O)c1ccc(NC(=O)C2C(c3cccc(C(F)(F)F)c3)CCCN2C(=O)/C=C/c2cc(Cl)ccc2-n2cnnn2)cc1 (stereo not shown) [Example 1-17, ammonium (E)-4-(1-(3-(5-chloro-2-(1H-tetrazol-1-yl)phenyl)acryloyl)-3-(3-(trifluoromethyl)phenyl)piperidine-2-carboxamido)benzoate]
25.3 nM | O=C(O)c1ccc(NC(=O)C2C(c3ccc(F)cc3)CCCN2C(=O)/C=C/c2cc(Cl)ccc2-n2cnnn2)cc1 (stereo not shown) [Example 1-18, ammonium (E)-4-(1-(3-(5-chloro-2-(1H-tetrazol-1-yl)phenyl)acryloyl)-3-(4-fluorophenyl)piperidine-2-carboxamido)benzoate]
> 10000 nM | O=C(O)C1CCC(NC(=O)C2C(c3ccc(F)cc3F)CCCN2C(=O)/C=C/c2cc(Cl)ccc2-n2cnnn2)CC1 (stereo not shown) [Example 1-19, ammonium (E)-4-(1-(3-(5-chloro-2-(1H-tetrazol-1-yl)phenyl)acryloyl)-3-(2,4-difluorophenyl)piperidine-2-carboxamido)cyclohexanecarboxylate]
627 nM | NCc1ccc(C(=O)N2CCCC(c3ccccc3)C2C(=O)Nc2ccc(C(=O)O)cc2)cc1 (stereo not shown) [Example 1-20, (4-(2-((4-carboxyphenyl)carbamoyl)-3-phenylpiperidine-1-carbonyl)phenyl)methanaminium 2,2,2-trifluoroacetate]
> 10000 nM | O=C(/C=C/c1cc(Cl)ccc1-n1cnnn1)N1CCCC(c2ccccc2)C1c1nc(-c2ccc(Cl)cc2)c[nH]1 (stereo not shown) [Example 1-21, (E)-3-(5-chloro-2-(1H-tetrazol-1-yl)phenyl)-1-(2-(4-(4-chlorophenyl)-1H-imidazol-2-yl)-3-phenylpiperidin-1-yl)prop-2-en-1-one]
3260 nM | N#Cc1ccc(-c2c[nH]c(C3C(c4ccccc4)CCCN3C(=O)/C=C/c3cc(Cl)ccc3-n3cnnn3)n2)cc1 (stereo not shown) [Example 1-22, (E)-4-(2-(1-(3-(5-chloro-2-(1H-tetrazol-1-yl)phenyl)acryloyl)-3-phenylpiperidin-2-yl)-1H-imidazol-4-yl)benzonitrile]
> 10000 nM | O=C(CCc1cc(Cl)ccc1-n1cnnn1)N1CCCC(c2ccccc2)C1c1nc(-c2ccc(Cl)cc2)c[nH]1 (stereo not shown) [Example 1-23, 3-(5-chloro-2-(1H-tetrazol-1-yl)phenyl)-1-(2-(4-(4-chlorophenyl)-1H-imidazol-2-yl)-3-phenylpiperidin-1-yl)propan-1-one]
8510 nM | N#Cc1ccc(-c2c[nH]c(C3C(c4ccccc4)CCCN3C(=O)CCc3cc(Cl)ccc3-n3cnnn3)n2)cc1 (stereo not shown) [Example 1-24, 4-(2-(1-(3-(5-chloro-2-(1H-tetrazol-1-yl)phenyl)propanoyl)-3-phenylpiperidin-2-yl)-1H-imidazol-4-yl)benzonitrile]
